Laboratory results as given in PMC3166236 (Journal of medicinal chemistry, 2011).

Columns and labels:
in vitro = conditions: human
[1] = Enzymatic stability in rat intestinal homogenate pH 6.5 at 37 °C; conditions: Sprague-Dawley, pH 6.5, Half-lives, rat intestinal homogenate pH 6.5, 37 °C
[2] = system: Vaccinia virus strain Copenhagen; test: microbe, parasite or virus in culture; type: cell-based; conditions: Orthopoxvirus vaccinia, read-out: Antiviral Activity IC50 Vaccinia
Towne strain of HCMV = test: microbe, parasite or virus in culture; type: cell-based, human cytomegalovirus; conditions: Human betaherpesvirus 5, read-out: Antiviral Activity IC50 HCMV
hPEPT1 = hPEPT1 expressed in the model system; cited from earlier work
[3] = parent (S)-HPMPA; cited from earlier work
KB cells = conditions: human
[4] = in vivo murine model; relative to 2 or its cyclic form 4; cited from earlier work
[5] = t1/2 Intestinal Homogenate pH 6.5, Rp isomer
[6] = t1/2 Intestinal Homogenate pH 6.5, Sp isomer

| Structure (SMILES) | IC50 (in vitro) | half-life at 0.5 mg/ml [1, 5] | half-life at 0.5 mg/ml [1, 6] | other results |
| --- | --- | --- | --- | --- |
| COC(=O)[C@@H](N)Cc1ccc(OP2(=O)CO[C@@H](Cn3cnc4c(N)ncnc43)CO2)cc1 (stereo partly drawn) [Compound 10, Methyl O-[(5S)-5-[(6-amino-9H-purin-9-yl)methyl]-2-oxido-1,4,2-dioxaphosphinan-2-yl]-(L)-tyrosinate] | > 100 µM | < 0.5 h | < 0.5 h | – |
| Nc1ccn(C[C@H]2COP(=O)(O)CO2)c(=O)n1 [Compound 4] | > 100 µM | – | – | IC50 [2]: 40 µM; IC50 (Towne strain of HCMV): 0.25 µM |
| COC(=O)[C@H](N)Cc1ccc(OP2(=O)CO[C@@H](Cn3ccc(N)nc3=O)CO2)cc1 (stereo partly drawn) [Compound 7, Methyl O-[(5S)-5-[(4-amino-2-oxopyrimidin-1(2H)-yl)methyl]-2-oxido-1,4,2-dioxaphosphinan-2-yl]-(D)-tyrosinate] | > 100 µM | 3.5 h | 1.2 h | – |
| CC(C)OC(=O)[C@@H](N)Cc1ccc(OP2(=O)CO[C@@H](Cn3ccc(N)nc3=O)CO2)cc1 (mixture of isomers) [Compound 8, Isopropyl O-[(5S)-5-[(4-amino-2-oxopyrimidin-1(2H)-yl)methyl]-2-oxido-1,4,2-dioxaphosphinan-2-yl]-(L)-tyrosinate] | > 100 µM | < 0.5 h | < 0.5 h | – |
| COC(=O)[C@H](COP1(=O)CO[C@@H](Cn2ccc(N)nc2=O)CO1)NC(=O)[C@@H](N)C(C)C (stereo partly drawn) [Val-Ser-OMe cHPMPC] | – | – | – | binding and transport by hPEPT1 (hPEPT1): tightly bound but not transported |
| Nc1ncnc2c1ncn2C[C@@H](CO)OCP(=O)(O)O [Compound 1, (S)-9-[3-hydroxy-2-(phosphonomethoxy)propyl]adenine, reference compound] | > 100 µM | – | – | oral bioavailability of the parent compound [3]: < 5% |
| CC(C)OC(=O)[C@@H](N)Cc1ccc(OP2(=O)CO[C@@H](Cn3ccc(N)nc3=O)CO2)cc1 (mixture of isomers) [8´, Isopropyl O-[(5S)-5-[(4-amino-2-oxopyrimidin-1(2H)-yl)methyl]-2-oxido-1,4,2-dioxaphosphinan-2-yl]-(L)-tyrosinate] | – | – | – | IC50 (KB cells): > 100 µM |
| COC(=O)[C@H](Cc1ccc(OP2(=O)CO[C@@H](Cn3cnc4c(N)ncnc43)CO2)cc1)NC(=O)[C@@H](N)C(C)C (stereo partly drawn) [Compound 13, Methyl (L)-valyl-O-[(5S)-5-[(6-amino-9H-purin-9-yl)methyl]-2-oxido-1,4,2-dioxaphosphinan-2-yl]-(L)-tyrosinate] | > 100 µM | < 0.5 h | < 0.5 h | – |
| CC(C)CNC(=O)[C@@H](N)Cc1ccc(OP(=O)(O)CO[C@H](CO)Cn2cnc3c(N)ncnc32)cc1 [Compound 28, O-[([[(2S)-1-(6-Amino-9H-purin-9-yl)-3-hydroxypropan-2-yl]oxy]methyl)(hydroxy)phosphoryl]-N-(2-methylpropyl)-(L)-tyrosinamide] | > 100 µM | – | – | – |
| CC(C)CNC(=O)[C@@H](N)Cc1ccc(OP2(=O)CO[C@@H](Cn3cnc4c(N)ncnc43)CO2)cc1 (mixture of isomers) [Compound 11, O-[(5S)-5-[(6-Amino-9H-purin-9-yl)methyl]-2-oxido-1,4,2-dioxaphosphinan-2-yl]-N-(2-methylpropyl)-(L)-tyrosinamide] | > 100 µM | 12.8 h | 1.9 h | half-life (Stability in rat plasma; Rp diastereomer): 3.55 h; half-life (Stability in rat plasma; Sp diastereomer): 0.383 h |
| Nc1ncnc2c1ncn2C[C@H]1COP(=O)(O)CO1 [Compound 3, (5S)-5-[(6-Amino-9H-purin-9-yl)methyl]-1,4,2-dioxaphosphinan-2-ol 2-oxide, reference compound] | > 100 µM | – | – | – |
| COC(=O)[C@@H](N)Cc1ccc(OP2(=O)CO[C@@H](Cn3ccc(N)nc3=O)CO2)cc1 (stereo partly drawn) [Compound 6, Methyl O-[(5S)-5-[(4-amino-2-oxopyrimidin-1(2H)-yl)methyl]-2-oxido-1,4,2-dioxaphosphinan-2-yl]-(L)-tyrosinate] | > 100 µM | < 0.5 h | < 0.5 h | – |
| CC(C)CNC(=O)[C@@H](N)Cc1ccc(OP2(=O)CO[C@@H](Cn3cnc4c(N)ncnc43)CO2)cc1 (mixture of isomers) [11´, O-[(5S)-5-[(6-Amino-9H-purin-9-yl)methyl]-2-oxido-1,4,2-dioxaphosphinan-2-yl]-N-(2-methylpropyl)-(L)-tyrosinamide] | – | – | – | IC50 (KB cells): > 100 µM |
| COC(=O)C(COP1(=O)COC(Cn2ccc(N)nc2=O)CO1)NC(=O)C(N)C(C)C (stereo not drawn) [(L)-Val-(L)-Ser-OMe cHPMPC] | – | – | – | increase in oral bioavailability of total 2 species [4]: eight-fold |
| CC(C)(C)NC(=O)[C@H](N)Cc1ccc(OP2(=O)CO[C@@H](Cn3ccc(N)nc3=O)CO2)cc1 (stereo partly drawn) [Compound 9, O-[(5S)-5-[(4-Amino-2-oxopyrimidin-1(2H)-yl)methyl]-2-oxido-1,4,2-dioxaphosphinan-2-yl]-N-tert-butyl-(D)-tyrosinamide] | > 100 µM | 28.9 h | 3.85 h | – |
| Nc1ccn(C[C@@H](CO)OCP(=O)(O)O)c(=O)n1 [Compound 2, 1-(S)-[3-hydroxy-2-(phosphonomethoxy)propyl]cytosine, reference compound] | > 100 µM | – | – | IC50 [2]: 20 µM |
